Marks after values point to notes of the source that are not given here.
Tests used:
ovariectomized rats = experiment: Effects on ovariectomized rat: bone mineral density of tibial epiphysis; format: in vivo; settings: 17 administrations, average for 5-8 animals, OVX control 79.9
Excerpt: Six-weeks old female SD rats (Charles River Japan) were subjected to ovariectomy of right and left ovaries, after one-week pre-feeding. Firstly, the hairs around the both flanks of the rats were shaved away. After anesthetizing the rat with diethyl ether, the area around the flanks was disinfected, and incised about 1 cm below the last ribs. The ovaries and uterus were extracted along with fats through the incision, and the ovaries were excised after ligating between ovaries and uterus with suture. The uterus and fats were then returned into the abdomens, and the incision was sutured. For rats receiving mock operations, ovaries were extracted as described above, and then returned into the abdomens as they were without ligature and excision. The rats which received such operations were divided into groups of four animals, and each group was housed in a polypropylene cage, and fed with chow (CRF-1; Charles River Japan) and water ad libitum.
A compound was weighed out into a mortar, and the crystals were finely ground with a pestle. To the ground compound, 1% hydroxypropyl cellulose (HPC, 150-400 cP) was then added in small amounts while rubbing for suspending and mixing the compound to prepare an administration liquid having a given concentration of the compound. Such liquids for administration were newly prepared every week.
The weights of ovariectomized rats described above were measured at an interval of one week, and the doses of the above liquid for administration were determined based on the weights. The same doses were used for one week until the next weight measurement. Administration to rats was started at one week after the ovariectomy, and the above liquids for administration were orally administered 17 times in total to groups of 5-8 animals through a 2 ml volume syringe attached with a metal sonde and once a day at a frequency of 5 times a week. […] The bone mineral density of the tibial epiphysis proximal to the knee was measured by an area scanning method.

[1] = test system: Rat osteoblastic cell line UMR 106; experiment: Effects on osteoblast: ALP activity and TGFβ amount; format: cell-based; settings: two days, corrected for protein; for ALP activity, relative value considering the value for control as 1: UMR 106 cells; for TGFβ, relative value considering the value for control as 1: UMR 106 medium supernatant
Experimental: Rat osteoblastic cell line UMR 106 was subcultured in Eagle's MEM medium containing 10% fetal bovine serum (active charcoal-treated), inoculated in 6-well plates (φ 36 mm well) at a density of 20,000 cells/well, and cultured overnight in 2 ml/well of the same serum-containing Eagle's MEM medium at 37° C. in the presence of 5% CO2. On the following day, the medium was aspirated, and the wells were washed by adding 1 ml/well of serum-free Eagle's MEM medium supplemented with Supplement A (a solution of insulin, transferrin, and selenium; Gibco BRL). After aspirating the washings, 2 ml/well of serum-free Eagle's MEM medium supplemented with Supplement A was newly added, and the cultivation was further continued at 37° C. Two days after the medium exchange, the medium was aspirated from each well. Into the wells, 2 ml/well of serum-free Eagle's MEM medium containing Supplement A to which a solution of a test compound in DMSO (or DMSO alone) had been added and mixed was then added, and the cultivation was further continued at 37° C. Two days after the addition of compound, the medium was collected, centrifuged (14,000 rpm, 5 minutes), and the supernatant was aliquoted. To each 0.6 ml aliquot, 20 μl of 1N HCl was added, mixed and then they were stored with ice-cooling. On the other hand, the wells from which the medium had been removed were washed twice with PBS (−). After thoroughly removing the residual liquid, 0.5 ml/well of extra pure water was added, and the cells were harvested, and stored at −80° C. The ice-cold medium supernatant described above was neutralized with 1N NaOH, and 100 μl aliquot thereof was sampled, and used in quantifying TGFβ using an ELISA kit for TGFβ (Biochemical Research Institute, Morinaga Milk Industry Co. Ltd.). On the other hand, the frozen cells were thawed by bringing them to room temperature. The cell suspension thus obtained by thawing the frozen cells was then centrifuged (14,000 rpm, 5 minutes), and 50 μl of the supernatant was used in measurement of alkaline phosphatase (ALP) activity. ALP activity was measured according to the method of Lowry [J. Biol. Chem. vol. 207, 19-37 (1954)]. The samples remained without being used for measurements of TGFβ and ALP activity were used in quantification of protein according to the method of Lowry [J. Biol. Chem. vol. 193, 265-275 (1951)].
The relative values for the amount of TGFβ and the ALP activity after correcting for the amounts of protein are shown in Table 2.

[2] = test system: α- and β-isoforms of human estrogen receptor; experiment: Antiestrogenic activity: ERE-luciferase reporter in HeLa cells transfected with hERα or hERβ, with 17β-estradiol; format: cell-based; settings: relative luminescence for β-isoform divided by that for α-isoform, 17β-estradiol 100 pM (α), 1 nM (β)
Excerpt: cDNA fragments for α- and β-isoforms of human estrogen receptor were cloned from a human liver cDNA library (Toyobo Co, Ltd.) by RT-PCR using oligonucleotides having the following base sequences as primers. For cloning the a-isoform, oligonucleotides 5′-[…]-3′ and 5′-[…]-3′ were used, while oligonucleotides 5′-[…]-3′ and 5′-[…]-3′ were used for cloning the β-isoform. The CDNA fragments for the α- and β-isoforms obtained by the RT-PCR procedures were blunt-ended, and each inserted into a vector for expression pRc/RSV (Invitrogen) at its blunt-ended Hind III cleavage site to obtain expression plasmids pRc-RSV-hERα and pRc-RSV-hERβ. In addition, an oligonucleotide 5′-[…]-3′ comprising an estrogen response element was inserted into a vector pGV-P (Toyo Ink Mfg. Co., Ltd.) at the Sma I cleavage site to obtain a luciferase reporter plasmid pGV-ERE.
Separately, HeLa cells which had been subcultured in Eagle's MEM medium containing 10% (v/v) phenol red-free and active charcoal-treated serum were inoculated in 24-well plates (φ16 mm well) at a density of 40,000 cells/well, cultured for 24 hours at 37° C. in the presence of 5% CO2, and then the medium was exchanged with serum-free Eagle's MEM medium.
The above expression plasmid pRc-RSV-hERα or pRc-RSV-hERβ, and the luciferase reporter plasmid pGV-ERE incorporating the estrogen response element were transfected into the above HeLa cells using the lipofectin method. Specifically, 0.3 μg of the expression plasmid pRc-RSV-hERα or pRc-RSV-hERβ, 0.1 μg of pGV-ERE, and 0.35 μl of Lipofectin mixed together, and added to the above HeLa cells. The HeLa cells were then cultured for 6 hours at 37° C. in the presence of 5% CO2. Next, the medium was exchanged with Eagle's MEM medium containing 10% serum (active charcoal-treated), and the cultivation was continued overnight at 37° C. under 5% CO2. Furthermore, the medium was exchanged with Eagle's MEM medium containing 10% serum (active charcoal-treated) which had been further supplemented with a solution of a test compound in DMSO (or DMSO alone) and 17β-estradiol (final concentration: 100 pM for the α-isoform, and 1 nM for the β-isoform), and the cells were cultured for 48 hours. After removing the medium and washing the cells twice with PBS(−), 50 μl/well of a lysis solution was added, and the cells were lysed at room temperature. An aliquot of this cell lysate was mixed with a luciferase assay substrate solution (Toyo Ink Mfg. Co., Ltd.), and the luminescence was measured using a luminometer. For each of α- and β-isoforms of estrogen receptor, the relative value of luminescence obtained in each experiment in which 17β-estradiol and a solution of one of test compounds in DMSO were added was then calculated, considering the luminescence obtained when 17β-estradiol and DMSO were added as 100. Next, the antiestrogenic activity (β/α) was calculated by dividing the relative value thus obtained for the β-isoform by that for the α-isoform.

Molecule | Bone mineral density (ovariectomized rats; 50 mg/kg-weight/day oral) | ALP activity, relative value considering the value for control as 1 ([1]; compound 0.1 μM) | TGFβ, relative value considering the value for control as 1 ([1]; compound 0.1 μM) | ALP activity, relative value considering the value for control as 1 ([1]; compound 1 μM) | TGFβ, relative value considering the value for control as 1 ([1]; compound 1 μM) | Antiestrogenic activity (β/α) ([2]; compound 0.1 μM) | Antiestrogenic activity (β/α) ([2]; compound 1 μM) | Antiestrogenic activity (β/α) ([2]; compound 10 μM) | Bone mineral density (ovariectomized rats; 0.1 mg/kg-weight/day oral)
Cc1cc(C(c2ccc(OCCN(C)C)cc2)c2cc(C)c(O)cc2C)c(C)cc1O [Compound 1, bis(2,5-dimethyl-4-hydroxyphenyl)[4-(2-dimethylamino-1-ethoxy)phenyl]methane] | 88.0* mg/cm^2 | 2.0 | 1.4 | 5.4 | 1.1 | 5.2 | 8.6 | 3.0 | 
Cc1cc(C(c2cccc(OCCN(C)C)c2)c2cc(C)c(O)cc2C)c(C)cc1O [Compound 2, bis(2,5-dimethyl-4-hydroxyphenyl)[3-(2-dimethylamino-1-ethoxy)phenyl]methane] | 91.2* mg/cm^2 | 1.5 |  |  |  | 19 | 5.5 | 2.3 | 
Cc1cc(C(c2cccc(OCCN(C)C)c2)c2cc(C)c(O)c(C)c2C)c(C)c(C)c1O [Compound 3] |  |  |  |  |  | 2.6 | 4.0 | 2.0 | 
Cc1cc(C(c2ccc(OCCN(C)C)cc2)c2cc(C)c(O)c(C)c2)cc(C)c1O [Compound 4] |  |  |  |  |  | 1.5 | 14 | 5.0 | 
Cc1cc(C(c2cccc(OCCN(C)C)c2)c2cc(C)c(O)c(C)c2)cc(C)c1O [Compound 5] |  |  |  |  |  |  | 8.4 | 5.0 | 
C#C[C@]1(O)CC[C@H]2[C@@H]3CCc4cc(O)ccc4[C@H]3CC[C@@]21C [ethinyl estradiol, reference compound] |  |  |  |  |  |  |  |  | 88.6* mg/cm^2
Hydroxytamoxifen [reference compound] |  |  |  |  |  | 1.3 | 1.9 | 1.5 | 

Source: patent publication US20020156301A1, “Triphenylmethane derivatives and use thereof” (Sumitomo Chemical Co., Ltd., priority 1997, published 2002)
